Reference: patent US20230092846A1, “COMBINATION FOR THE TREATMENT OF CANCER AND APPLICATION THEREOF” (EVERFRONT BIOTECH INC., priority 2020, published 2023)
In brackets after ≈: the same amount, converted by molar mass. Where two headings read alike, the source gives them in different places.

Experiments:
HT-29 cell = experiment: MTT cell viability analysis, single agents, HT-29; assay type: cell-based; conditions: cultured 24, 48 and 72 hours (time of IC50 not given)
Procedure: (§1) In this example, the effects of the compound of the present invention and different anticancer medicaments on killing cancer cells were studied by MTT (Thiazolyl Blue tetrazolium bromide, 3-[4,5-dimethylthiahiazo-2-yl]-[…] bromide) cell viability analysis.
(§2) Thereafter, each of the aforesaid cell lines were cultured with cell medium containing 5-fluorouracil, (Z)-n-butylidenephthalide, and 2-pentanolybenzoic acid for 24 hours, 48 hours and 72 hours.

Mia-PaCa2 cells = experiment: MTT cell viability analysis, single agents, Mia-PaCa2; assay type: cell-based, human
Procedure: as §1
(§3) Thereafter, each of the aforesaid cell lines was cultured with cell medium containing gemcitabine, cisplatin, 5-fluorouracil, irinotecan, oxaliplatin, paclitaxel, (Z)-n-butylidenephthalide, (E)-n-butylidenephthalide, 2-pentanolybenzoic acid, sodium 2-pentanoylbenzoate, and butylphthalide, for 24 hours, 48 hours and 72 hours, respectively.

PANC-1 cells = experiment: MTT cell viability analysis, single agents, PANC-1; assay type: cell-based, human
Procedure: as §1, §3

AsPC-1 cells = experiment: MTT cell viability analysis, single agents, AsPC-1; assay type: cell-based, human
Procedure: as §1, §3

HepG2 cell = experiment: MTT cell viability analysis, single agents, HepG2; assay type: cell-based; conditions: cultured 24, 48 and 72 hours (time of IC50 not given)
Procedure: as §1, §2

A549 cell = experiment: MTT cell viability analysis, single agents, A549; assay type: cell-based; conditions: cultured 24, 48 and 72 hours (time of IC50 not given)
Procedure: as §1, §2

DBTRG-05MG cell = experiment: MTT cell viability analysis, single agents, DBTRG-05MG; assay type: cell-based; conditions: cultured 24, 48 and 72 hours (time of IC50 not given)
Procedure: as §1, §2

Panc02 cells = experiment: MTT cell viability analysis, single agents, Panc02; assay type: cell-based, mouse
Procedure: as §1, §3

[1] = Homo sapiens, MIA PaCa-2, Mia-PaCa2, MTT, cultured 24, 48 and 72 hours (time of IC50 not given), read-out: IC50
[2] = Homo sapiens, MTT, cultured 24, 48 and 72 hours (time of IC50 not given), read-out: IC50
[3] = Homo sapiens, ASPC1, AsPC-1, MTT, cultured 24, 48 and 72 hours (time of IC50 not given), read-out: IC50
[4] = Mus musculus, MTT, cultured 24, 48 and 72 hours (time of IC50 not given), read-out: IC50
[5] = Mia-PaCa2, MTT, cultured 24, 48 and 72 hours (time of IC50 not given)
[6] = MTT, cultured 24, 48 and 72 hours (time of IC50 not given)
[7] = AsPC-1, MTT, cultured 24, 48 and 72 hours (time of IC50 not given)

| IC50 (Mia-PaCa2 cells; [1]) | IC50 (PANC-1 cells; [2]) | IC50 (AsPC-1 cells; [3]) | IC50 (Panc02 cells; [4]) | Compound | IC50 (Mia-PaCa2 cells; [5]) | IC50 (PANC-1 cells; [6]) | IC50 (AsPC-1 cells; [7]) | IC50 (Panc02 cells; [6]) | also measured |
| --- | --- | --- | --- | --- | --- | --- | --- | --- | --- |
| 4.9 ± 0.27 µg/mL (≈ 37.7 µM) | 8.45 ± 0.35 µg/mL (≈ 65 µM) | 25.4 ± 3.91 µg/mL (≈ 195 µM) | 0.0673 µg/mL (≈ 0.517 µM) | O=c1[nH]cc(F)c(=O)[nH]1 [5-fluorouracil, reference compound] | – | – | – | – | IC50 (HT-29 cell; Homo sapiens, read-out: IC50): 20.8 ± 0.91 µg/mL (≈ 160 µM); IC50 (HepG2 cell; Homo sapiens, read-out: IC50): 4.44 ± 0.25 µg/mL (≈ 34.1 µM); IC50 (A549 cell; Homo sapiens, read-out: IC50): 8.55 ± 0.22 µg/mL (≈ 65.7 µM); IC50 (DBTRG-05MG cell; Homo sapiens, read-out: IC50): 55.5 ± 6.1 µg/mL (≈ 426 µM) |
| – | – | – | – | N.N.[Cl][Pt][Cl] [cisplatin, Cisplatin] | 32.86 ± 1.08 µg/mL | 35.87 ± 1.23 µg/mL | 21.56 ± 1.05 µg/mL | 53.36 ± 1.74 µg/mL | – |
| 0.00458 µg/mL (≈ 0.00536 µM) | 0.0196 µg/mL (≈ 0.023 µM) | 0.058 µg/mL (≈ 0.0679 µM) | 0.0124 µg/mL (≈ 0.0146 µM) | CC(=O)O[C@H]1C(=O)[C@@]2(C)[C@H]([C@H](OC(=O)c3ccccc3)[C@]3(O)C[C@H](OC(=O)[C@H](O)[C@@H](NC(=O)c4ccccc4)c4ccccc4)C(C)=C1C3(C)C)[C@]1(OC(C)=O)CO[C@@H]1C[C@@H]2O [paclitaxel, Paclitaxel] | – | – | – | – | – |
| – | – | – | – | 2-pentanolybenzoic acid | 693.5 ± 19.57 µg/mL | 980.5 ± 22.64 µg/mL | 490.2 ± 19.69 µg/mL | 769.9 ± 15.13 µg/mL | IC50 (HT-29 cell): 443.8 ± 0.04 µg/mL; IC50 (HepG2 cell): 1141.5 ± 0.01 µg/mL; IC50 (A549 cell): 795.5 ± 0.02 µg/mL; IC50 (DBTRG-05MG cell): 392.8 ± 0.01 µg/mL |
| – | – | – | – | CCC/C=C1/OC(=O)c2ccccc21 [(E)-n-butylidenephthalide] | – | – | – | – | IC50 (Mia-PaCa2 cells; Homo sapiens, MIA PaCa-2): 629 ± 16.5 µg/mL (≈ 3340 µM); IC50 (PANC-1 cells; Homo sapiens): 779 ± 26.9 µg/mL (≈ 4140 µM); IC50 (AsPC-1 cells; Homo sapiens, ASPC1): 131 ± 43.3 µg/mL (≈ 697 µM); IC50 (Panc02 cells; Mus musculus): 514 ± 9.21 µg/mL (≈ 2730 µM) |
